In ChEMBL document CHEMBL6182851, “Discovery of dual CDK4/6 and BRD4 inhibitor as apoptosis and autophagy inducers against NSCLC in vitro and in vivo” (Eur J Med Chem, 2025):
Active and inactive are the calls of the source. The rule behind the calls is not given here.

Tests used:
NCI-H460 [1] = assay: Induction of autophagy in human NCI-H460 cells assessed as increase in acidic vesicles at 20 uM incubated for 48 hrs by MDC staining and LC3B immunofluorescence analysis; type: functional, cell-based
NCI-H460 [2] = assay: Induction of cell cycle arrest in human NCI-H460 cells assessed as accumulation of cells at G2 phase at 20 uM incubated for 48 hrs by PI staining based flow cytometric analysis (reference value: 11.0 %); type: functional
NCI-H460 [3] = assay: Induction of cell cycle arrest in human NCI-H460 cells assessed as accumulation of cells at S phase at 20 uM incubated for 48 hrs by PI staining based flow cytometric analysis (reference value: 33.3 %); type: functional
NCI-H460 [4] = assay: Antitumor activity against human NCI-H460 cells xenografted in female BALB/c nude mouse assessed as tumor growth inhibition at 50 mg/kg, ip administered for 21 consecutive days in presence of ribociclib relative to control; type: functional; conditions: NCI-H460, 504 h, time 21 day, read-out: TGI
NCI-H460 [5] = assay: Induction of cell cycle arrest in human NCI-H460 cells assessed as accumulation of cells at G1 phase at 20 uM incubated for 48 hrs by PI staining based flow cytometric analysis (reference value: 56.7 %); type: functional
A549 [6] = assay: cells; conditions: Homo sapiens, A549, 48 h
Description: Antitumor activity against human A549 cells assessed as inhibition of cell viability incubated for 48 hrs by MTT assay

NCI-H460 [7] = assay: Induction of autophagy in human NCI-H460 cells assessed as increase in autophagosomes at 20 uM incubated for 48 hrs by MDC staining and LC3B immunofluorescence analysis; type: functional, cell-based
A549 [8] = assay: Antitumor activity against human A549 cells assessed as inhibition of cell viability incubated for 48 hrs in presence of ribociclib by MTT assay; type: functional, cell-based; conditions: A549, 48 h
NCI-H460 [9] = assay: Induction of apoptosis in human NCI-H460 cells assessed as late apoptotic cells at 20 uM incubated for 48 hrs in presence of ribociclib by Annexin V-PE/7-AAD staining based flow cytometric analysis (reference value: 3.76 %); type: functional
NCI-H460 [10] = assay: Induction of cell cycle arrest in human NCI-H460 cells assessed as accumulation of cells at G1 phase at 20 uM in presence of ribociclib incubated for 48 hrs by PI staining based flow cytometric analysis (reference value: 56.7 %); type: functional
NCI-H460 [11] = assay: Induction of cell cycle arrest in human NCI-H460 cells assessed as accumulation of cells at S phase at 20 uM in presence of ribociclib incubated for 48 hrs by PI staining based flow cytometric analysis (reference value: 33.3 %); type: functional
NCI-H460 [12] = assay: Induction of apoptosis in human NCI-H460 cells assessed as early apoptotic cells at 20 uM incubated for 48 hrs by Annexin V-PE/7-AAD staining based flow cytometric analysis (reference value: 3.58 %); type: functional
NCI-H460 [13] = assay: Induction of apoptosis in human NCI-H460 cells assessed as late apoptotic cells at 20 uM incubated for 48 hrs by Annexin V-PE/7-AAD staining based flow cytometric analysis (reference value: 3.76 %); type: functional
NCI-H460 [14] = assay: Induction of apoptosis in human NCI-H460 cells assessed as necrotic cells at 20 uM incubated for 48 hrs in presence of ribociclib by Annexin V-PE/7-AAD staining based flow cytometric analysis (reference value: 0.79 %); type: functional
NCI-H460 [15] = assay: Induction of apoptosis in human NCI-H460 cells assessed as necrotic cells at 20 uM incubated for 48 hrs by Annexin V-PE/7-AAD staining based flow cytometric analysis (reference value: 0.79 %); type: functional
NCI-H460 [16] = assay: Induction of autophagy in human NCI-H460 cells assessed as increase in number of autophagosomes at 20 uM in presence of ribociclib incubated for 48 hrs by MDC staining and LC3B immunofluorescence analysis; type: functional, cell-based
NCI-H460 [17] = assay: Induction of cell cycle arrest in human NCI-H460 cells assessed as accumulation of cells at G2 phase at 20 uM in presence of ribociclib incubated for 48 hrs by PI staining based flow cytometric analysis (reference value: 11.0 %); type: functional
[18] = biological target: Bromodomain-containing protein 4 (Homo sapiens) (UniProt O60885); conditions: dose 1000.0 nM
Description: Inhibition of BRD4 BD2 (unknown origin) assessed as inhibition ratio at 1000 nM relative to control

NCI-H1299 [19] = assay: Antitumor activity against human NCI-H1299 cells assessed as inhibition of cell viability incubated for 48 hrs in presence of ribociclib by MTT assay; type: functional, cell-based; conditions: NCI-H1299, 48 h
NCI-H460 [20] = assay: Antitumor activity against human NCI-H460 cells xenografted in female BALB/c nude mouse assessed as tumor growth inhibition at 50 mg/kg, ip administered for 21 consecutive days relative to control; type: functional; conditions: NCI-H460, 504 h, time 21 day, read-out: TGI
NCI-H460 [21] = assay: Antitumor activity against human NCI-H460 cells assessed as inhibition of cell viability incubated for 48 hrs in presence of ribociclib by MTT assay; type: functional, cell-based; conditions: NCI-H460, 48 h
NCI-H460 [22] = assay: Induction of apoptosis in human NCI-H460 cells assessed as early apoptotic cells at 20 uM incubated for 48 hrs in presence of ribociclib by Annexin V-PE/7-AAD staining based flow cytometric analysis (reference value: 3.58 %); type: functional
NCI-H1299 [23] = assay: cells; conditions: Homo sapiens, NCI-H1299, 48 h
Description: Antitumor activity against human NCI-H1299 cells assessed as inhibition of cell viability incubated for 48 hrs by MTT assay

NCI-H460 [24] = assay: cells; conditions: Homo sapiens, NCI-H460, 48 h
Description: Antitumor activity against human NCI-H460 cells assessed as inhibition of cell viability incubated for 48 hrs by MTT assay

IC50 (A549 [6]): > 40 µM | IC50 (A549 [8]): 18.8 µM | inhibition [18]: 89.8% | IC50 (NCI-H1299 [19]): 8.16 µM | IC50 (NCI-H460 [21]): 10.3 µM | IC50 (NCI-H1299 [23]): 18.4 µM | IC50 (NCI-H460 [24]): > 40 µM
Compound: COc1cc(OC)c2c(=O)[nH]c(-c3cc(C)c(OCCO)c(C)c3)nc2c1 [APABETALONE]
Activity (NCI-H460 [1]): inactive | Activity (NCI-H460 [2]): 13% | Activity (NCI-H460 [3]): 30.1% | inhibition in vivo at 50 mg/kg (NCI-H460 [4]): 72% | Activity (NCI-H460 [5]): 56% | Activity (NCI-H460 [7]): inactive | Activity (NCI-H460 [9]): 5.71% | Activity (NCI-H460 [10]): 87.9% | Activity (NCI-H460 [11]): 9.38% | Activity (NCI-H460 [12]): 2.05% | Activity (NCI-H460 [13]): 4.99% | Activity (NCI-H460 [14]): 1.11% | Activity (NCI-H460 [15]): 1.59% | Activity (NCI-H460 [16]): inactive | Activity (NCI-H460 [17]): 4.4% | inhibition in vivo at 50 mg/kg (NCI-H460 [20]): 37.5% | Activity (NCI-H460 [22]): 13.8%
